Assay results taken from publication PMC5589937 (Scientific Reports, 2017).
Like-named read-outs stand apart in the source and are kept apart here.

Legend:
hGIB = tested on: hGIB; parameters: method as in PMID 16686528; settings: cited from earlier work
hGX = settings: cited from earlier work
hGV = settings: cited from earlier work
severe sepsis = tested on: severe sepsis; parameters: method as in PMID 16096451; settings: trials terminated; experiment group; cited from earlier work
WT hGIIE = biological target: T1, WT hGIIE (Homo sapiens, UniProt Q9NZK7); assay: Inhibition of wild type hGIIE, sPLA2 assay kit (DTPC substrate, DTNB detection); format: biochemical; settings: WT enzyme 6.42 µM per well; mean ± s.d., n=2; read-out: IC50 against WT hGIIE
T1 construct: The gene encoding for hGIIE protein without signal peptide was amplified by PCR; made in house; host or cells: Pichia pastoris X33 (vector pGAPZαA)
T1 sequence (Q9NZK7 20-142): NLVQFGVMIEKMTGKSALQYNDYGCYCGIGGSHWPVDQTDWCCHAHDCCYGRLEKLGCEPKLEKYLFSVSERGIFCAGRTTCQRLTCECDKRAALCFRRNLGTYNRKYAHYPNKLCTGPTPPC
Experimental: (§1) Enzymatic Kinetics of hGIIE assay was carried out using sPLA2 Assay kit (Cayman, Ann Arbor, MI, USA). Substrate of this assay is 1, 2-Diheptanoyl Thio-phosphatidylcholine (DTPC). After hydrolysis of the thio ester bond in the sn-2 position by phospholipase A2, free thiols are detected using 5, 5-dithio-bis-nitrobenzoic acid (DTNB). Activity assay was carried out on a 96-well plate at 25 °C. 10 µL DTNB, 10 µL protein sample and 5 µL buffer (25 mM Tris-HCl, pH 7.5, 10 mM CaCl2, 100 mM KCl, 0.3 mM Triton X-100) were pooled in the well, then the reaction was initiated by adding 200 µL substrate solution to the well simultaneously. Absorbance at 414 nm was measured every 1 min for 15 min. […] Protein concentration was adjusted to ensure the absorbance increase of 0.01 to 0.1 per minute. Curve was fitted to Michaelis-Menten equation and Lineweaver-Burk plot for the estimation of Km and Vmax using GraphPad Prism 5, Kcat was calculated by Vmax/enzyme concentration.
(§2) Inhibition of wild type (WT) and mutated hGIIE was analyzed using sPLA2 assay kit as mentioned above. In the assay system, 5 µL assay buffer was replaced by 5 µL of the inhibitor. Different concentrations of compound 8, 14, 24, Me-Indoxam, and LY311727 were prepared. The final concentration of enzyme used per well are as following: WT: 6.42 µM; F5L: 6.4 µM; F97L: 10.48 µM; F5L_F97L: 6.73 µM; G6H: 10.91 µM; G6N: 7.56 µM; N21G: 32.86 µM; N21M: 22.14 µM; N21W: 30 µM. Control reactions without enzyme or inhibitor were carried out. Percent inhibition of every well were calculated. Curve was fitted to the log (inhibitor)-response variable slope and IC50 was calculated using GraphPad Prism 5 (GraphPad).

hGIIE N21G = biological target: T2, hGIIE N21G (Homo sapiens, UniProt Q9NZK7, N40G); assay: Inhibition of hGIIE mutant N21G, sPLA2 assay kit; format: biochemical; settings: N21G enzyme 32.86 µM; mean ± s.d., n=2; read-out: IC50 against hGIIE N21G
T2 construct: The gene encoding for hGIIE protein without signal peptide was amplified by PCR; made in house; host or cells: Pichia pastoris X33 (vector pGAPZαA)
T2 sequence (Q9NZK7 20-142 N40G): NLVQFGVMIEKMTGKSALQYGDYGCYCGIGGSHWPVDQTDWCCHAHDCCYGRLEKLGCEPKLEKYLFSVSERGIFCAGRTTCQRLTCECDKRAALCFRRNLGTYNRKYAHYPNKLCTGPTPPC
Experimental: as §1, §2

hGIIE G6H = biological target: T3, hGIIE G6H (Homo sapiens, UniProt Q9NZK7, G25H); assay: Inhibition of hGIIE mutant G6H, sPLA2 assay kit; format: biochemical; settings: G6H enzyme 10.91 µM; mean ± s.d., n=2; read-out: IC50 against hGIIE G6H
T3 construct: The gene encoding for hGIIE protein without signal peptide was amplified by PCR; made in house; host or cells: Pichia pastoris X33 (vector pGAPZαA)
T3 sequence (Q9NZK7 20-142 G25H): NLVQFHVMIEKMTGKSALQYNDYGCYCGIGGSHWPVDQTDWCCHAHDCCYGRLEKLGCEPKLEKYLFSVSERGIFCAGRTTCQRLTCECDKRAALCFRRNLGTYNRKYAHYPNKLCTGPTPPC
Experimental: as §1, §2

hGIIE F5L = biological target: T4, hGIIE F5L (Homo sapiens, UniProt Q9NZK7, F24L); assay: Inhibition of hGIIE mutant F5L, sPLA2 assay kit; format: biochemical; settings: F5L enzyme 6.4 µM; mean ± s.d., n=2; read-out: IC50 against hGIIE F5L
T4 construct: The gene encoding for hGIIE protein without signal peptide was amplified by PCR; made in house; host or cells: Pichia pastoris X33 (vector pGAPZαA)
T4 sequence (Q9NZK7 20-142 F24L): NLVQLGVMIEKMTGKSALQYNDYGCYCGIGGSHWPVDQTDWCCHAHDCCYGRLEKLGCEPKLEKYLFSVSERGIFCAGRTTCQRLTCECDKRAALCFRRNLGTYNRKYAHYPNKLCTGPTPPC
Experimental: as §1, §2

hGIIE N21M = biological target: T5, hGIIE N21M (Homo sapiens, UniProt Q9NZK7, N40M); assay: Inhibition of hGIIE mutant N21M, sPLA2 assay kit; format: biochemical; settings: N21M enzyme 22.14 µM; mean ± s.d., n=2; read-out: IC50 against hGIIE N21M
T5 construct: The gene encoding for hGIIE protein without signal peptide was amplified by PCR; made in house; host or cells: Pichia pastoris X33 (vector pGAPZαA)
T5 sequence (Q9NZK7 20-142 N40M): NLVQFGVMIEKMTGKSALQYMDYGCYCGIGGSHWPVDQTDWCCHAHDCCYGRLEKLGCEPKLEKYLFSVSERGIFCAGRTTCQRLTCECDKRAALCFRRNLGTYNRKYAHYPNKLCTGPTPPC
Experimental: as §1, §2

hGIIE F5L_F97L = biological target: T6, hGIIE F5L_F97L (Homo sapiens, UniProt Q9NZK7, F116L/F24L); assay: Inhibition of hGIIE double mutant F5L_F97L, sPLA2 assay kit; format: biochemical; settings: F5L_F97L enzyme 6.73 µM; mean ± s.d., n=2; read-out: IC50 against hGIIE F5L_F97L
T6 construct: The gene encoding for hGIIE protein without signal peptide was amplified by PCR; made in house; host or cells: Pichia pastoris X33 (vector pGAPZαA)
T6 sequence (Q9NZK7 20-142 F24L/F116L): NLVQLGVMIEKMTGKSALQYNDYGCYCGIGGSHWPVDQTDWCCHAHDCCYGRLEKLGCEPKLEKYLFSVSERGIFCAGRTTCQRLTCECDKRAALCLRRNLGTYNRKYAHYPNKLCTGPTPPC
Experimental: as §1, §2

hGIIE N21W = biological target: T7, hGIIE N21W (Homo sapiens, UniProt Q9NZK7, N40W); assay: Inhibition of hGIIE mutant N21W, sPLA2 assay kit; format: biochemical; settings: N21W enzyme 30 µM; mean ± s.d., n=2; read-out: IC50 against hGIIE N21W
T7 construct: The gene encoding for hGIIE protein without signal peptide was amplified by PCR; made in house; host or cells: Pichia pastoris X33 (vector pGAPZαA)
T7 sequence (Q9NZK7 20-142 N40W): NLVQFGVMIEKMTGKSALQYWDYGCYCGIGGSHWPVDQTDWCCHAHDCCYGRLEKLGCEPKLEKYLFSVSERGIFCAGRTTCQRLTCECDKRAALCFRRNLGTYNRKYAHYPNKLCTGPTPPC
Experimental: as §1, §2

hGIIE F97L = biological target: T8, hGIIE F97L (Homo sapiens, UniProt Q9NZK7, F116L); assay: Inhibition of hGIIE mutant F97L, sPLA2 assay kit; format: biochemical; settings: F97L enzyme 10.48 µM; mean ± s.d., n=2; read-out: IC50 against hGIIE F97L
T8 construct: The gene encoding for hGIIE protein without signal peptide was amplified by PCR; made in house; host or cells: Pichia pastoris X33 (vector pGAPZαA)
T8 sequence (Q9NZK7 20-142 F116L): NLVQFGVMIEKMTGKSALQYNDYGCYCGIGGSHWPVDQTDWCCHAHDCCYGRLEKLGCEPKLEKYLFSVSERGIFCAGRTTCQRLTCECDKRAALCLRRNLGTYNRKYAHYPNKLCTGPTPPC
Experimental: as §1, §2

hGIIE G6N = biological target: T9, hGIIE G6N (Homo sapiens, UniProt Q9NZK7, G25N); assay: Inhibition of hGIIE mutant G6N, sPLA2 assay kit; format: biochemical; settings: G6N enzyme 7.56 µM; mean ± s.d., n=2; read-out: IC50 against hGIIE G6N
T9 construct: The gene encoding for hGIIE protein without signal peptide was amplified by PCR; made in house; host or cells: Pichia pastoris X33 (vector pGAPZαA)
T9 sequence (Q9NZK7 20-142 G25N): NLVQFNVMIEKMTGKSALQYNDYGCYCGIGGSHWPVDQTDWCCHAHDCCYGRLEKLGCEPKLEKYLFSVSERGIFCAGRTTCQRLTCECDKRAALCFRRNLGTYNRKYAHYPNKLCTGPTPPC
Experimental: as §1, §2

hGIIE = biological target: T10, hGIIE (Homo sapiens, UniProt Q9NZK7); settings: cited from earlier work
T10 construct: The gene encoding for hGIIE protein without signal peptide was amplified by PCR; made in house; host or cells: Pichia pastoris X33 (vector pGAPZαA)
T10 sequence (Q9NZK7 20-142): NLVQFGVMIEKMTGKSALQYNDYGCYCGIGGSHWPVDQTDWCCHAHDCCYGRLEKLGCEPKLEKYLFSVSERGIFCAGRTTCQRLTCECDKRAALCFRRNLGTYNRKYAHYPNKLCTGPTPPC

hGIIA = settings: measure not given; read-out: potency to hGIIA; cited from earlier work
hGIID = tested on: hGIID; parameters: method as in PMID 15028265; settings: cited from earlier work
rheumatoid arthritis = tested on: rheumatoid arthritis; parameters: method as in PMID 15742431; settings: clinically tested; cited from earlier work
cardiovascular diseases = settings: treatment of cardiovascular diseases; cited from earlier work
[1] = substrate: CCCCCC(=O)OC[C@H](COP(=O)([O-])OCC[N+](C)(C)C)OC(=O)CCCCC; assay: purified protein, by the assay type; settings: other: ITC, 25 °C, 2 µM hGIIE, pH 7.5, 10 mM CaCl2
Experimental: Reactions were performed with Microcal ITC200 (GE Healthcare) at 25 °C, and data were collected and analyzed by ORIGIN. A multiple injection kinetic assay was conducted using a stirring speed of 750 rpm. 2 µM protein hGIIE (200 µL) in the reaction cell was titrated with 13 × 3 µL injection of phospholipid (10–50 mM) using a 120 s delay between successive injections. The apparent enthalpy (ΔH) for the hydrolysis of phospholipid by hGIIE was determined in a separate experiment in which 1 × 6 µL injections of phospholipid into 2 µM protein hGIIE (200 µL) was made using spacing 1800 s. Buffer solution was carefully matched in both the ligand and enzyme solutions. Mother liquor of phospholipids including DHPG (in water), DHPC (in DMSO), DHPE (in DMSO) (Avanti) with 200 mM concentration were prepared. Working buffer (20 mM DHPG, 50 mM DHPC, 10 mM DHPE) is prepared by diluting the mother liquor with buffer 100 mM Tris, 150 mM KCl, 10 mM CaCl2, pH 7.5.

| Molecule | IC50 (hGV) | IC50 (WT hGIIE) | IC50 (hGIIE N21G) | IC50 (hGIIE G6H) | IC50 (hGIIE F5L) | IC50 (hGIIE N21M) | IC50 (hGIIE F5L_F97L) | IC50 (hGIIE N21W) | IC50 (hGIIE F97L) | IC50 (hGIIE G6N) | IC50 (hGIIE; read-out: IC50 hGIIE) | other results |
| --- | --- | --- | --- | --- | --- | --- | --- | --- | --- | --- | --- | --- |
| CCc1c(C(=O)C(N)=O)c2c(OCC(=O)O)cccc2n1Cc1ccccc1 [LY315920, Varespladib] | 500 nM |  |  |  |  |  |  |  |  |  |  | IC50 (hGIB): 750 nM; IC50 (hGX): 75 nM |
| CCc1c(C(=O)C(N)=O)c2c(OCC(=O)[O-])cccc2n1Cc1ccccc1.[Na+] [LY315920: Na] |  |  |  |  |  |  |  |  |  |  |  | outcome of clinical trials in severe sepsis (severe sepsis): higher mortality rate |
| Cc1c(C(=O)C(N)=O)c2c(OCC(=O)O)cccc2n1Cc1cccc(Br)c1 [Compound 14] | < 330 nM | 220 ± 20 nM | 1730 ± 50 nM | 880 ± 310 nM | 130 ± 40 nM | 840 ± 30 nM | 300 ± 20 nM | 1940 ± 220 nM | 280 ± 70 nM | 230 ± 30 nM | < 25 nM |  |
| Cc1c(C(=O)C(N)=O)c2c(OCC(=O)O)cccc2n1Cc1cccc2ccccc12 [Compound 8] | < 330 nM | 280 ± 30 nM | 630 ± 20 nM | 3760 ± 860 nM | 250 ± 60 nM | 1050 ± 20 nM | 250 ± 40 nM | 1270 ± 220 nM | 480 ± 30 nM | 630 ± 50 nM | < 25 nM |  |
| Cc1c(C(=O)C(N)=O)c2c(OCC(=O)O)cccc2n1Cc1ccccc1-c1ccccc1 [Me-Indoxam] |  | 210 ± 10 nM | 1840 ± 30 nM | 300 ± 20 nM | 160 ± 10 nM | 880 ± 10 nM | 240 ± 30 nM | 1440 ± 130 nM | 260 ± 20 nM | 140 ± 20 nM |  | IC50 (hGIIA): 30 nM; IC50 (hGIIE; measure not given, read-out: potency to hGIIE): 8 nM |
| CCc1c(CC(N)=O)c2cc(OCCCP(=O)(O)O)ccc2n1Cc1ccccc1 [LY311727] |  |  | 5130 ± 1070 nM | 14300 ± 390 nM | 1790 ± 140 nM | 5980 ± 400 nM | 1000 ± 220 nM | 18000 ± 1370 nM | 1120 ± 20 nM | 3070 ± 420 nM |  |  |
| Cc1c(C(=O)C(N)=O)c2c(OCC(=O)O)cccc2n1Cc1ccccc1C(F)(F)F [Compound 24] | < 330 nM |  | 2390 ± 400 nM | 540 ± 30 nM | 110 ± 10 nM | 830 ± 220 nM | 140 ± 10 nM | 1870 ± 180 nM | 250 ± 20 nM | 270 ± 30 nM | < 25 nM | decreased effect against hGIID in comparison to hGIIE (hGIID): over 100 fold; decreased effect against hGX than hGIIE (hGX): about 50 fold |
| CCc1c(C(=O)C(N)=O)c2c(OCC(=O)OC)cccc2n1Cc1ccccc1 [Varespladib methyl] |  |  |  |  |  |  |  |  |  |  |  | efficacy in treatment of rheumatoid arthritis (rheumatoid arthritis): ineffective; adverse effects in phase three trials (cardiovascular diseases): increased events of cardiovascular mortality, heart attack, and stroke |
| hGIIE (Homo sapiens) (protein) NLVQFGVMIEKMTGKSALQYNDYGCYCGIGGSHWPVDQTDWCCHAHDCCYGRLEKLGCEPKLEKYLFSVSERGIFCAGRTTCQRLTCECDKRAALCFRRNLGTYNRKYAHYPNKLCTGPTPPC |  |  |  |  |  |  |  |  |  |  |  | Km [1]: 5.52 ± 1.00 mM; kcat [1]: 3.22 ± 0.30 s⁻¹ |
